Measured values as given in ChEMBL document CHEMBL1151947, “Synthesis, potency, and in vivo evaluation of 2-piperazin-1-ylquinoline analogues as dual serotonin reuptake inhibitors and serotonin 5-HT1A receptor antagonists” (J Med Chem, 2009).

Key:
[1] = biological target: T1, 5-hydroxytryptamine receptor 1A (Homo sapiens) (UniProt P08908); assay: Antagonist activity at human 5HT1A receptor expressed in CHO cells assessed as inhibition of [35S]GTPgammaS binding relative to control; type: functional, cell-based
T1 sequence (whole entry): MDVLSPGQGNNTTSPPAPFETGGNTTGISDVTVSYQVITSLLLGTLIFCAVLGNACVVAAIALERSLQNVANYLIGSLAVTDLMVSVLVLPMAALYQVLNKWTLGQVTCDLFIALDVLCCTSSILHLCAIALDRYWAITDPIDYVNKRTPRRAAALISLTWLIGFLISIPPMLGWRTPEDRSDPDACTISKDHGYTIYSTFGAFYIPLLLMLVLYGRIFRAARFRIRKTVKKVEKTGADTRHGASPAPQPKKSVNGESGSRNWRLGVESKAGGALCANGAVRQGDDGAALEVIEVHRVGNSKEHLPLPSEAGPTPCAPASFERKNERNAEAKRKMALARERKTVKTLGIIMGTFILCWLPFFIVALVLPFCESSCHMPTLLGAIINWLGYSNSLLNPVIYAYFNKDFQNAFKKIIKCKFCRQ

[2] = biological target: Sodium-dependent serotonin transporter (Rattus norvegicus, UniProt P31652)
Description: Displacement of [3H]paroxetine from 5HT transporter in rat cortical membrane

[3] = biological target: T2, 5-hydroxytryptamine receptor 1A (Homo sapiens, UniProt P08908)
T2 sequence (P08908 whole entry): T1 sequence (whole entry)
Description: Antagonist activity at human 5HT1A receptor expressed in CHO cells assessed as stimulation of [35S]GTPgammaS binding

[4] = biological target: T2, 5-hydroxytryptamine receptor 1A; assay: biochemical
Description: Displacement of [3H]8-OH-DPAT from human 5HT1A receptor expressed in CHO cells

[5] = biological target: Sodium-dependent serotonin transporter (Homo sapiens, UniProt P31645); assay: Antagonist activity at human 5HT transporter expressed in staurosporine treated human JAR cells; type: functional, cell-based
[6] = biological target: Sodium-dependent serotonin transporter (Rattus norvegicus) (UniProt P31652); assay: Ratio Ki for drug to Ki for (2S)-8-Methyl-2-{[4-(6-nitroquinolin-2-yl)piperazin-1-yl]- methyl}-2,3-dihydro[1,4]dioxino[2,3-f ]quinoline against 5HT transporter in rat cortical membrane; type: cell membranes
Sequence of Sodium-dependent serotonin transporter (Rattus norvegicus) (P31652 whole entry): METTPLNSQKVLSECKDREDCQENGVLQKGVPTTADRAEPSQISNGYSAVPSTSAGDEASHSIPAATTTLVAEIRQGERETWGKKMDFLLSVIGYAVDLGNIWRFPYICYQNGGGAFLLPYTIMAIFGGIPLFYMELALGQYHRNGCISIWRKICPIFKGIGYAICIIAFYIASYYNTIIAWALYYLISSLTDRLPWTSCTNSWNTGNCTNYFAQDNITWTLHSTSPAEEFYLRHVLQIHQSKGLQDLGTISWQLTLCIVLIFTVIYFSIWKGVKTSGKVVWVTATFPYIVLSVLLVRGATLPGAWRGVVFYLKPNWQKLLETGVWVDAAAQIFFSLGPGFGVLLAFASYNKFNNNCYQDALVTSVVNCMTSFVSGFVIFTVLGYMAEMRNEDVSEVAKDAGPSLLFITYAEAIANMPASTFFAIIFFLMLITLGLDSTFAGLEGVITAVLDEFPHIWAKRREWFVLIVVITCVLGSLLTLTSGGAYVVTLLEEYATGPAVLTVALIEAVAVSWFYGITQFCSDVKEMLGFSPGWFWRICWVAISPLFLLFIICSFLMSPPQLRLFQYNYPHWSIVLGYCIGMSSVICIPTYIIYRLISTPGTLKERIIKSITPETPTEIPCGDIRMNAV

Sequence of Sodium-dependent serotonin transporter (Rattus norvegicus, UniProt P31652) (P31652 whole entry): as above
Sequence of Sodium-dependent serotonin transporter (Homo sapiens, UniProt P31645) (P31645 whole entry): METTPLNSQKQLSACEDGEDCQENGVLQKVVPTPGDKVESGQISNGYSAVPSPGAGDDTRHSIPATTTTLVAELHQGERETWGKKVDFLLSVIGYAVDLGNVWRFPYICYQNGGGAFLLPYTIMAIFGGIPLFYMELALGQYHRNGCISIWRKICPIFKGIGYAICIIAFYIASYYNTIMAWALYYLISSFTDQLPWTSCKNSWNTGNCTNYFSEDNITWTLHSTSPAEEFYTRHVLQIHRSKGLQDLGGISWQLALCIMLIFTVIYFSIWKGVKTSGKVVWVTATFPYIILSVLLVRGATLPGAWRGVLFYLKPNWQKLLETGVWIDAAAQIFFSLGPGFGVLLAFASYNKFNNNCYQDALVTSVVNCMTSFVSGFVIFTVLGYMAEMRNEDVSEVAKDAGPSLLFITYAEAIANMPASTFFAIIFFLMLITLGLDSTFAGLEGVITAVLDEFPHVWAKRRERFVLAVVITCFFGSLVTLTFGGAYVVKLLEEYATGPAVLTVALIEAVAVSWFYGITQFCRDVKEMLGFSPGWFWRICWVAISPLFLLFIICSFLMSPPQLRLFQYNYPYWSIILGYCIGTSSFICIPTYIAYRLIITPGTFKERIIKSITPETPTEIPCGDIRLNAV

| Structure (SMILES) | Imax [1] [%] | Ki [2] [nM] | IC50 [3] [nM] | Ki [4] [nM] | IC50 [5] [nM] | Ratio Ki [6] |
| --- | --- | --- | --- | --- | --- | --- |
| Cc1ccc2c3c(ccc2n1)OC[C@H](CN1CCN(c2ccc4cc(OC(F)(F)F)ccc4n2)CC1)O3 | 85 | 148 | 588 | 172 |  |  |
| Cc1ccc2c3c(ccc2n1)OC[C@H](CN1CCN(c2ccc4cc(Br)ccc4n2)CC1)O3 | 96 | 12.7 | 156 |  |  |  |
| Cc1ccc2c3c(ccc2n1)OC[C@H](CN1CCCN(c2ccc4ccccc4n2)CC1)O3 | 58 | 7.4 | 70 | 6.8 |  |  |
| Cc1ccc2c3c(ccc2n1)OC[C@H](CN1CCCN(c2ccc4cc(C#N)ccc4n2)CC1)O3 | 53 |  | 58 | 2 |  |  |
| Cc1ccc2c3c(ccc2n1)OC[C@H](CN1CCN(c2ccc4ccccc4n2)C[C@H]1C)O3 | 85 |  | 117 |  |  |  |
| Cc1ccc2c3c(ccc2n1)OC[C@H](CN1CC=C(c2c[nH]c4ccccc24)CC1)O3 | 98.3 | 2.34 | 56.7 | 3.02 | 145 |  |
| Cc1ccc2c3c(ccc2n1)OC[C@H](CN1CCN(c2ccc4ccccc4n2)CC1)O3 | 100 | 75 | 4870 |  |  |  |
| Cc1ccc2c3c(ccc2n1)OC[C@H](CN1CCN(c2ccc4cc(Cl)ccc4n2)CC1)O3 | 62 | 0.88 | 781 |  |  |  |
| Cc1ccc2c3c(ccc2n1)OC[C@H](CN1CCN(c2ccc4cc(F)ccc4n2)CC1)O3 | 100 | 66 | 2170 | 32.9 |  |  |
| Cc1ccc2c3c(ccc2n1)OC[C@H](CN1CCN(c2ccc4cc([N+](=O)[O-])ccc4n2)CC1)O3 | 79 |  | 294 |  |  | 9 |
| Cc1ccc2c3c(ccc2n1)OC[C@H](CN1CCN(c2ccc4cc(C#N)ccc4n2)C[C@H]1C)O3 | 92 | 89.6 | 180 | 2.8 |  |  |
| Cc1ccc2c3c(ccc2n1)OC[C@H](CN1CCCN(c2ccc4cc(F)ccc4n2)CC1)O3 | 74 | 3.9 | 70 | 1.5 |  |  |
| Cc1ccc2c3c(ccc2n1)OC[C@H](CN1CCN(c2ccc4cc(C(N)=O)ccc4n2)CC1)O3 | 100 | 17 | 164 |  |  |  |
| Cc1ccc2c3c(ccc2n1)OC[C@H](CN1CCN(c2ccc4ccccc4n2)C[C@@H]1C)O3 | 76.5 | 10.3 | 1900 |  |  |  |
